In PubChem BioAssay (NCI):
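Values below derive from 48-hour exposures of cells grown in 96-well plates, with endpoints linearly interpolated between the two concentrations bracketing the appropriate inhibition level. The concentration for 50% growth inhibition is given as GI50. TGI is the concentration that stops growth completely.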

Assays:
Experiment in all cases: DTP human tumour cell line panel, 48 h
786-0 renal = system: 786-0 renal
A498 renal = system: A498 renal
A549 NSCLC = system: A549 NSCLC
ACHN renal = system: ACHN renal
CAKI-1 renal = system: CAKI-1 renal
CCRF-CEM leukemia = system: CCRF-CEM leukemia
COLO 205 colon = system: COLO 205 colon
DLD-1 colon = system: DLD-1 colon
DMS 273 small cell lung = system: DMS 273 small cell lung
EKVX NSCLC = system: EKVX NSCLC
HCC-2998 colon = system: HCC-2998 colon
HCT-116 colon = system: HCT-116 colon
HCT-15 colon = system: HCT-15 colon
HL-60(TB) leukemia = system: HL-60(TB) leukemia
HOP-18 NSCLC = system: HOP-18 NSCLC
HOP-62 NSCLC = system: HOP-62 NSCLC
HOP-92 NSCLC = system: HOP-92 NSCLC
HT29 colon = system: HT29 colon
IGROV1 ovarian = system: IGROV1 ovarian
K-562 leukemia = system: K-562 leukemia
KM12 colon = system: KM12 colon
KM20L2 colon = system: KM20L2 colon
LOX IMVI melanoma = system: LOX IMVI melanoma
LXFL 529 NSCLC = system: LXFL 529 NSCLC
M14 melanoma = system: M14 melanoma
M19-MEL melanoma = system: M19-MEL melanoma
MALME-3M melanoma = system: MALME-3M melanoma
MOLT-4 leukemia = system: MOLT-4 leukemia
NCI-H226 lung = system: NCI-H226 lung
NCI-H23 lung = system: NCI-H23 lung
NCI-H460 lung = system: NCI-H460 lung
NCI-H522 lung = system: NCI-H522 lung
OVCAR-3 ovarian = system: OVCAR-3 ovarian
OVCAR-4 ovarian = system: OVCAR-4 ovarian
OVCAR-5 ovarian = system: OVCAR-5 ovarian
OVCAR-8 ovarian = system: OVCAR-8 ovarian
RXF 393 renal = system: RXF 393 renal
SF-539 CNS = system: SF-539 CNS
SK-MEL-2 melanoma = system: SK-MEL-2 melanoma
SK-MEL-28 melanoma = system: SK-MEL-28 melanoma
SK-MEL-5 melanoma = system: SK-MEL-5 melanoma
SK-OV-3 ovarian = system: SK-OV-3 ovarian
SN12C renal = system: SN12C renal
SNB-19 CNS = system: SNB-19 CNS
SNB-75 CNS = system: SNB-75 CNS
SNB-78 CNS = system: SNB-78 CNS
SW-620 colon = system: SW-620 colon
U251 CNS = system: U251 CNS
UACC-257 melanoma = system: UACC-257 melanoma
UO-31 renal = system: UO-31 renal

In the case of O=C1C(=c2ccc(=C3C(=O)c4ccc([N+](=O)[O-])cc4[N+]3=O)cc2)N([O-])c2cc([N+](=O)[O-])ccc21, the TGI (786-0 renal) is reported as > 100 µM, the GI50 (A498 renal) is reported as > 100 µM and the TGI (A498 renal) is reported as > 100 µM. The GI50 (A549 NSCLC) was > 100 µM, the TGI (A549 NSCLC) was > 100 µM and the GI50 (ACHN renal) was > 100 µM. The TGI (ACHN renal) was > 100 µM, the GI50 (CAKI-1 renal) was > 100 µM and the TGI (CAKI-1 renal) was > 100 µM. For the same molecule, the GI50 (CCRF-CEM leukemia) was > 100 µM, the TGI (CCRF-CEM leukemia) was > 100 µM and the GI50 (COLO 205 colon) was > 100 µM. For the same molecule, the TGI (COLO 205 colon) was > 100 µM, the GI50 (DLD-1 colon) was > 100 µM and the TGI (DLD-1 colon) was > 100 µM. For the same molecule, the GI50 (DMS 273 small cell lung) was > 100 µM, the TGI (DMS 273 small cell lung) was > 100 µM and the GI50 (EKVX NSCLC) was > 100 µM. The TGI (EKVX NSCLC) was > 100 µM, the GI50 (HCC-2998 colon) was > 100 µM and the TGI (HCC-2998 colon) was > 100 µM. For the same molecule, the GI50 (HCT-116 colon) was > 100 µM, the TGI (HCT-116 colon) was > 100 µM and the GI50 (HCT-15 colon) was > 100 µM. For the same molecule, the TGI (HCT-15 colon) was > 100 µM, the GI50 (HL-60(TB) leukemia) was > 100 µM and the TGI (HL-60(TB) leukemia) was > 100 µM. The TGI (HOP-18 NSCLC) was > 100 µM, the TGI (HOP-62 NSCLC) was > 100 µM and the GI50 (HOP-92 NSCLC) was > 100 µM. For the same molecule, the TGI (HOP-92 NSCLC) was > 100 µM, the GI50 (HT29 colon) was > 100 µM and the TGI (HT29 colon) was > 100 µM. The GI50 (IGROV1 ovarian) was > 100 µM, the TGI (IGROV1 ovarian) was > 100 µM and the GI50 (K-562 leukemia) was > 100 µM. The TGI (K-562 leukemia) was > 100 µM, the GI50 (KM12 colon) was > 100 µM and the TGI (KM12 colon) was > 100 µM. The GI50 (KM20L2 colon) was > 100 µM, the TGI (KM20L2 colon) was > 100 µM and the GI50 (LOX IMVI melanoma) was > 100 µM. The TGI (LOX IMVI melanoma) was > 100 µM, the GI50 (LXFL 529 NSCLC) was > 100 µM and the TGI (LXFL 529 NSCLC) was > 100 µM. For the same molecule, the GI50 (M14 melanoma) was > 100 µM, the TGI (M14 melanoma) was > 100 µM and the GI50 (M19-MEL melanoma) was > 100 µM. For the same molecule, the TGI (M19-MEL melanoma) was > 100 µM, the GI50 (MALME-3M melanoma) was > 100 µM and the TGI (MALME-3M melanoma) was > 100 µM. The GI50 (MOLT-4 leukemia) was > 100 µM, the TGI (MOLT-4 leukemia) was > 100 µM and the GI50 (NCI-H226 lung) was > 100 µM. The TGI (NCI-H226 lung) was > 100 µM, the GI50 (NCI-H23 lung) was > 100 µM and the TGI (NCI-H23 lung) was > 100 µM. For the same molecule, the GI50 (NCI-H460 lung) was > 100 µM, the TGI (NCI-H460 lung) was > 100 µM and the GI50 (NCI-H522 lung) was > 100 µM. The TGI (NCI-H522 lung) was > 100 µM, the GI50 (OVCAR-3 ovarian) was > 100 µM and the TGI (OVCAR-3 ovarian) was > 100 µM. The GI50 (OVCAR-4 ovarian) was > 100 µM, the TGI (OVCAR-4 ovarian) was > 100 µM and the GI50 (OVCAR-5 ovarian) was > 100 µM. The TGI (OVCAR-5 ovarian) was > 100 µM, the GI50 (OVCAR-8 ovarian) was > 100 µM and the TGI (OVCAR-8 ovarian) was > 100 µM. For the same molecule, the GI50 (RXF 393 renal) was > 100 µM, the TGI (RXF 393 renal) was > 100 µM and the GI50 (SF-539 CNS) was > 100 µM. The TGI (SF-539 CNS) was > 100 µM, the GI50 (SK-MEL-2 melanoma) was > 100 µM and the TGI (SK-MEL-2 melanoma) was > 100 µM. For the same molecule, the GI50 (SK-MEL-28 melanoma) was > 100 µM, the TGI (SK-MEL-28 melanoma) was > 100 µM and the GI50 (SK-MEL-5 melanoma) was > 100 µM. For the same molecule, the TGI (SK-MEL-5 melanoma) was > 100 µM, the GI50 (SK-OV-3 ovarian) was > 100 µM and the TGI (SK-OV-3 ovarian) was > 100 µM. The GI50 (SN12C renal) was > 100 µM, the TGI (SN12C renal) was > 100 µM and the GI50 (SNB-19 CNS) was > 100 µM. The TGI (SNB-19 CNS) was > 100 µM, the TGI (SNB-75 CNS) was 69.8 µM and the TGI (SNB-78 CNS) was > 100 µM. The GI50 (SW-620 colon) was > 100 µM, the TGI (SW-620 colon) was > 100 µM and the GI50 (U251 CNS) was > 100 µM. For the same molecule, the TGI (U251 CNS) was > 100 µM, the GI50 (UACC-257 melanoma) was > 100 µM and the TGI (UACC-257 melanoma) was > 100 µM. For the same molecule, the GI50 (UO-31 renal) was > 100 µM and the TGI (UO-31 renal) was > 100 µM.
